# Results: PMC11143257, “Atomistic mechanism of coupling between cytosolic sensor domain and selectivity filter in TREK K2P channels” (Nature Communications, 2024)
# Changes are numbered by the printed parent chain.
# Legend:
# Experiment in all cases: MTS probe modification, inside-out patch-clamp
# [1] = test system: WT TREK-1; type: cell-based, human; details: 100 µM decyl-MTS for at least 30 s, excised patches, symmetric K+, pH 7.4, +40 mV
# Procedure: (§1) First, we measured WT TREK-1, WT TRAAK and TREK-2^* channels without modifiable cysteine residues as references. […] Note, that patch integrity and channel regulation were tested with either 1 mM tetra-pentyl-ammonium (TPenA) and a short pHi activation step. Next, we conducted systematic cysteine scanning mutagenesis of the entire pCt and examined the effect of charged and aliphatic MTS probes.
# (§2) Xenopus laevis oocytes were surgically removed from anesthetized adult females, treated with type II collagenase (Sigma-Aldrich/Merck, Germany) and manually defolliculated. […] Currents were recorded with an EPC10 amplifier (HEKA electronics, Germany) and sampled at 10 kHz or higher and filtered with 3 kHz (-3 dB) or higher as appropriate for the sampling rate. […]
# (§3) The fold current increase (fold activation) of a ligand (decyl-MTS) was calculated from the following equation:1 FoldactivationFA=Iactivated/Ibasal with Iactivated represents the stable current level in the presence of 100 µM decyl-MTS and Ibasal the measured current before application of the MTS probe.
# [2] = target: T1, TREK-1 T318C (Homo sapiens, UniProt O95069, T318C); type: cell-based; details: 100 µM decyl-MTS
# T1 construct: expressed in transfected cells; host or cells: Xenopus laevis oocytes (cRNA injection), excised inside-out patches
# T1 sequence (O95069 1-426 T318C): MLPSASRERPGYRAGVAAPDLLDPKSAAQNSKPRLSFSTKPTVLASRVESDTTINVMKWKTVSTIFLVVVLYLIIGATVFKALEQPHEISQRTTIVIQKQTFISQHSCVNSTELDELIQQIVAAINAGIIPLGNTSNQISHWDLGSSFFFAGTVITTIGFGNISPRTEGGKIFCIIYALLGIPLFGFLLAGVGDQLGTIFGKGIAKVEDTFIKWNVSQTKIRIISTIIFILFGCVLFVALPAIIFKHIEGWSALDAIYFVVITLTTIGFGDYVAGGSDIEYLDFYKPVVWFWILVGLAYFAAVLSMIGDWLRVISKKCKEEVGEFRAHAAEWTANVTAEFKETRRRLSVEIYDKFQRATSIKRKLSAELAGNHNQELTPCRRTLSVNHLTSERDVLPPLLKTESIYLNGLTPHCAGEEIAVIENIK
# Procedure: as §1
# (§4) Xenopus laevis oocytes were surgically removed from anesthetized adult females, treated with type II collagenase (Sigma-Aldrich/Merck, Germany) and manually defolliculated. A solution containing the K^+ channel-specific cRNA at a desired concentration was injected into Dumont stage V - VI oocytes and subsequently incubated at 17 °C in a solution containing (mM): 54 NaCl, […], 2.4 NaHCO3, 0.82 MgSO4 x 7 H2O, 0.41 CaCl2, 0.33 Ca(NO3)2 x 4 H2O and 7.5 TRIS (pH 7.4 adjusted with NaOH/HCl) for 1 - 7 days before use. Patch-clamp recordings in an inside-out configuration under voltage-clamp conditions were performed at room temperature (22 - 24 °C). Patch pipettes were made from thick-walled borosilicate glass GB 200TF-8P (Science Products, Germany), had resistances of 0.2 - 0.5 MΩ (tip diameter of 10 - 25 µm) and filled with a pipette solution (in mM): 120 KCl, 10 HEPES and 3.6 CaCl2 (pH 7.4 adjusted with KOH/HCl). Intracellular bath solutions and compounds were applied to the cytoplasmic side of excised patches for the various K^+ channels via a gravity flow multi-barrel pipette system. The intracellular solution had the following composition (in mM): 120 KCl, 10 HEPES, 2 EGTA, and 1 Pyrophosphate (pH adjusted with KOH/HCl). Currents were recorded with an EPC10 amplifier (HEKA electronics, Germany) and sampled at 10 kHz or higher and filtered with 3 kHz (-3 dB) or higher as appropriate for the sampling rate.
# (§5) Tetra-pentyl-ammonium chloride (TPenA) was purchased from Merck (Sigma-Aldrich), prepared as 100 mM stocks in intracellular recording solution, stored at −20 °C and diluted to a final concentration in intracellular recording solution before measurements. Decyl-MethaneThioSulfonate (Decyl-MTS), (2-(trimethylammonium)ethyl)MethaneThioSulfonate bromide (MTS-ET^+) and Sodium (2-sulfonatoethyl)MethaneThioSulfonate (MTS-ES^-) were purchased from Toronto Research Chemicals. MTS-ET^+ was directly dissolved to the desired concentration of 1 mM in the intracellular recording solution before each experiment. MTS-ET^+ was used immediately after dilution for maximally 5 min. Decyl-MTS and […] were prepared as 10 - 100 mM stocks in DMSO and diluted to the desired concentration before the measurements.
# as §3
# [3] = target: T2, TREK-1 V322C (Homo sapiens, UniProt O95069, V322C); type: cell-based; details: 100 µM decyl-MTS
# T2 construct: expressed in transfected cells; host or cells: Xenopus laevis oocytes (cRNA injection), excised inside-out patches
# T2 sequence (O95069 1-426 V322C): T1 sequence (O95069 1-426 T318C) with C318T, V322C
# Procedure: as §1, §4, §5, §3
# [4] = test system: corresponding cysteine mutant channels in TREK-2; type: cell-based, human; details: TREK-2 cysteine mutant channels; decyl-MTS
# Procedure: First, we measured WT TREK-1, WT TRAAK and TREK-2^* channels without modifiable cysteine residues as references. Upon application of 100 µM of decyl-MTS for at least 30 s to the respective channel in excised membrane patches, no change in current amplitudes was recognized (Fig. 2a and Supplementary Fig. 2a, b). Note, that patch integrity and channel regulation were tested with either 1 mM tetra-pentyl-ammonium (TPenA) and a short pHi activation step. Next, we conducted systematic cysteine scanning mutagenesis of the entire pCt and examined the effect of charged and aliphatic MTS probes. […] Remarkably, all hit residues face toward the inner leaflet of the lipid bilayer (Fig. 2b, inlay).
# as §2, §3
smiles,measurement,setting,value
"CCCCCCCCCCSS(C)(=O)=O [decyl-MTS, Decyl-MethaneThioSulfonate]",effect on current amplitude,[1],no change
same,full current increase (fold activation),[2]; mean ± s.e.m.,33 ± 11 fold
same,effect on current,"[2]; symmetrical K+, +40 mV, pH 7.4",strong and irreversible activation
same,full current increase (fold activation),[3]; mean ± s.e.m.,42 ± 17 fold
same,effect on current,"[3]; symmetrical K+, +40 mV, pH 7.4",strong and irreversible activation
same,effect on current,[4],similarly activated
